Results as given in US6849394B2, “Compositions comprising reproductive cell media and methods for using such compositions” (Minitube of America, priority 2002, dated 2005).

System: boar sperm cells
Experiment: Motility of sperm in boar semen stored at 17° C. in sperm cell medium (Sperm Vison)
Format: cell-based
Procedure: Compositions comprising sperm cell media were prepared prior to collection by reconstituting Androhep Plus™ and the individual components indicated in the experiments below with microfiltered, deionized (Type I) water. Androhep Plus™ was prepared according to the manufacturer's instructions, except that additional components were added in an amount sufficient to give the concentrations indicated below. Each composition was transferred in 75-ml aliquots to 100-ml plastic bottles commercially available from Minitube of America (Verona, Wis.). Semen was collected (modified full ejaculate) from randomly selected, sexually mature boars (n=3) using the gloved hand technique. Following each collection, each ejaculate was evaluated for sperm cell concentration with an SDM5 photometer with a 546 nm filter and the percentage of motile cells was assessed with Sperm Vison™ using a plain glass slide and a 6 μl drop of semen. Aliquots of semen containing 1×10^9 motile spermatozoa from each of the three boars was transferred into each 75-ml aliquot of composition comprising sperm cell medium at the same temperature (36° C.±1° C.) to give a final concentration of 4×10^7 live sperm cells/ml. Following dispersion of the sperm cells in the composition, each sample was tested for percent motility. Samples were maintained in a semen storage unit at 17° C. The samples were gently mixed periodically during storage. […] Each aliquot was pre-warmed for 30 minutes in a dry block heater at 37° C. prior to motility testing. Motility testing was which was performed using the Sperm Vison™ module in the Prism Program and a plain glass slide pre-warmed to 37° C.

In the case of `O=C(CO)[C@@H](O)[C@H](O)[C@H](O)CO` [fructose], the Mean % motility (Table 7, Androhep Plus + 20 ng/L TGFβ-1, 0.8 ng/L TGFβ-2, 80 ng/L IGF-1, fructose 3.75 g/L, day 1) is reported as 94.9%, the Mean % motility (Table 7, Androhep Plus + 20 ng/L TGFβ-1, 0.8 ng/L TGFβ-2, 80 ng/L IGF-1, fructose 3.75 g/L, day 5) is reported as 88.7% and the Mean % motility (Table 7, Androhep Plus + 20 ng/L TGFβ-1, 0.8 ng/L TGFβ-2, 80 ng/L IGF-1, fructose 3.75 g/L, day 10) is reported as 88.7%. The Mean % motility (Table 7, Androhep Plus + 20 ng/L TGFβ-1, 0.8 ng/L TGFβ-2, 80 ng/L IGF-1, fructose 3.75 g/L, day 20) was 89.8%, the Mean % motility (Table 7, Androhep Plus + 20 ng/L TGFβ-1, 0.8 ng/L TGFβ-2, 80 ng/L IGF-1, fructose 7.5 g/L, day 1) was 96.9% and the Mean % motility (Table 7, Androhep Plus + 20 ng/L TGFβ-1, 0.8 ng/L TGFβ-2, 80 ng/L IGF-1, fructose 7.5 g/L, day 5) was 91.0%. It also gave a Mean % motility (Table 7, Androhep Plus + 20 ng/L TGFβ-1, 0.8 ng/L TGFβ-2, 80 ng/L IGF-1, fructose 7.5 g/L, day 10) of 88.3%, a Mean % motility (Table 7, Androhep Plus + 20 ng/L TGFβ-1, 0.8 ng/L TGFβ-2, 80 ng/L IGF-1, fructose 7.5 g/L, day 20) of 89.8% and a Mean % motility (Table 7, Androhep Plus + 20 ng/L TGFβ-1, 0.8 ng/L TGFβ-2, 80 ng/L IGF-1, fructose 15 g/L, day 1) of 94.3%. For the same molecule, the Mean % motility (Table 7, Androhep Plus + 20 ng/L TGFβ-1, 0.8 ng/L TGFβ-2, 80 ng/L IGF-1, fructose 15 g/L, day 5) was 85.8%, the Mean % motility (Table 7, Androhep Plus + 20 ng/L TGFβ-1, 0.8 ng/L TGFβ-2, 80 ng/L IGF-1, fructose 15 g/L, day 10) was 89.3% and the Mean % motility (Table 7, Androhep Plus + 20 ng/L TGFβ-1, 0.8 ng/L TGFβ-2, 80 ng/L IGF-1, fructose 15 g/L, day 20) was 89.3%. It also gave a Mean % motility (Table 7, Androhep Plus + 20 ng/L TGFβ-1, 0.8 ng/L TGFβ-2, 80 ng/L IGF-1, fructose 30 g/L, day 1) of 94.7%, a Mean % motility (Table 7, Androhep Plus + 20 ng/L TGFβ-1, 0.8 ng/L TGFβ-2, 80 ng/L IGF-1, fructose 30 g/L, day 5) of 54.8% and a Mean % motility (Table 7, Androhep Plus + 20 ng/L TGFβ-1, 0.8 ng/L TGFβ-2, 80 ng/L IGF-1, fructose 30 g/L, day 10) of 37.4%. It also gave a Mean % motility (Table 7, Androhep Plus + 20 ng/L TGFβ-1, 0.8 ng/L TGFβ-2, 80 ng/L IGF-1, fructose 30 g/L, day 20) of 2.2%.
With `O=S(=O)([O-])[O-].[Zn+2]` [zinc sulfate] the Mean % motility (Table 6, base Androhep Plus, zinc sulfate 0.05 g/L, day 1) was 83.3%, the Mean % motility (Table 6, base Androhep Plus, zinc sulfate 0.05 g/L, day 5) was 83.7% and the Mean % motility (Table 6, base Androhep Plus, zinc sulfate 0.05 g/L, day 10) was 87.7%. For the same molecule, the Mean % motility (Table 6, base Androhep Plus, zinc sulfate 0.05 g/L, day 20) was 84.0%, the Mean % motility (Table 6, base Androhep Plus, zinc sulfate 0.1 g/L, day 1) was 92.0% and the Mean % motility (Table 6, base Androhep Plus, zinc sulfate 0.1 g/L, day 5) was 93.3%. For the same molecule, the Mean % motility (Table 6, base Androhep Plus, zinc sulfate 0.1 g/L, day 10) was 89.7%, the Mean % motility (Table 6, base Androhep Plus, zinc sulfate 0.1 g/L, day 20) was 78.3% and the Mean % motility (Table 6, base Androhep Plus, zinc sulfate 0.2 g/L, day 1) was 94.7%. For the same molecule, the Mean % motility (Table 6, base Androhep Plus, zinc sulfate 0.2 g/L, day 5) was 93.3%, the Mean % motility (Table 6, base Androhep Plus, zinc sulfate 0.2 g/L, day 10) was 87.7% and the Mean % motility (Table 6, base Androhep Plus, zinc sulfate 0.2 g/L, day 20) was 87.0%. It also gave a Mean % motility (Table 6, base Androhep Plus, zinc sulfate 0.5 g/L, day 1) of 86.0%, a Mean % motility (Table 6, base Androhep Plus, zinc sulfate 0.5 g/L, day 5) of 85.7% and a Mean % motility (Table 6, base Androhep Plus, zinc sulfate 0.5 g/L, day 10) of 89.3%. It also gave a Mean % motility (Table 6, base Androhep Plus, zinc sulfate 0.5 g/L, day 20) of 82.5%, a Mean % motility (Table 6, base Androhep Plus, zinc sulfate 1.0 g/L, day 1) of 94.0% and a Mean % motility (Table 6, base Androhep Plus, zinc sulfate 1.0 g/L, day 5) of 73.0%. It also gave a Mean % motility (Table 6, base Androhep Plus, zinc sulfate 1.0 g/L, day 10) of 87.3% and a Mean % motility (Table 6, base Androhep Plus, zinc sulfate 1.0 g/L, day 20) of 78.3%.
For `O[C@H]1[C@H](O)[C@@H](O)[C@H](O)[C@@H](O)[C@H]1O` [inositol], the Mean % motility (Table 8, Androhep Plus, inositol 0.25 g/L, day 1) was 85.7%, the Mean % motility (Table 8, Androhep Plus, inositol 0.25 g/L, day 5) was 88.0% and the Mean % motility (Table 8, Androhep Plus, inositol 0.25 g/L, day 7) was 93.3%. For the same molecule, the Mean % motility (Table 8, Androhep Plus, inositol 0.25 g/L, day 10) was 78.3%, the Mean % motility (Table 8, Androhep Plus, inositol 0.25 g/L, day 20) was 48.0% and the Mean % motility (Table 8, Androhep Plus, inositol 0.5 g/L, day 1) was 94.7%. The Mean % motility (Table 8, Androhep Plus, inositol 0.5 g/L, day 5) was 93.3%, the Mean % motility (Table 8, Androhep Plus, inositol 0.5 g/L, day 7) was 92.7% and the Mean % motility (Table 8, Androhep Plus, inositol 0.5 g/L, day 10) was 84.3%. For the same molecule, the Mean % motility (Table 8, Androhep Plus, inositol 0.5 g/L, day 20) was 70.3%.
